Data: patent US20190145961A1, “PPAR AGONIST OR LXR AGONIST FOR USE IN THE TREATMENT OF SYSTEMIC LUPUS ERYTHEMATOSUS BY MODULATION OF LAP ACTIVITY” (Washington University, priority 2016, published 2019)

Assays:
Assay type in all cases: cell-based
[1] = system: Bone marrow-derived macrophages (BMM) from LysM-Cre+ ATG7f/f mice; test: IL-10 production by LysM-Cre+ ATG7f/f bone marrow-derived macrophages co-cultured with apoptotic thymocytes (ELISA); conditions: 20 μM; LysM-Cre+ ATG7f/f (LAP-deficient) BMM, apoptotic thymocytes 10:1, 18 hours co-culture, supernatant ELISA; versus control treatment (FIG. 1B)
Procedure: (§1) Bone marrow-derived macrophages (BMM) were generated as previously described from LysM-Cre− ATG7f/f and LysM-Cre+ ATG7f/f mice. Macrophages were co-cultured with UV-irradiated apoptotic thymocytes (at a ratio of 10 apoptotic cells:1 macrophage) in the presence or absence of PPARβ/δ agonist GW0742 (GW, 20 μM). NT indicates no treatment. After 18 hours of co-culture, supernatants were collected and analyzed for IL-10 production via ELISA (FIG. 1B). […] Thus, PPAR agonists can be effective at restoring the LAP phenotype in LAP-deficient cells.
(§2) Bone marrow-derived macrophages (BMDMs) were generated from bone marrow progenitors obtained from littermates. Freshly prepared bone marrow cells were cultured in DMEM medium supplemented with 10% heat-inactivated FCS, 2 mM L-glutamine, 10 mM HEPES buffer, 50 μg/ml penicillin, and non-essential amino acids in the presence of 20 ng/ml rmM-CSF (Peprotech) for 6 days. Nonadherent cells were removed on day 6, and adherent macrophages were detached from plates and re-plated for experimental use.
Apoptosis was induced in wild-type C57Bl/6 thymocytes by UV irradiation (20 J/m^2). Thymocytes were washed twice with PBS prior to experimental use.

[2] = system: bone marrow derived-macrophages from Rbcn+/+ and Rbcn−/− mice; test: Cytokine production by Rbcn+/+ and Rbcn−/− bone marrow derived-macrophages stimulated with apoptotic thymocytes (Luminex); conditions: apoptotic thymocytes (1:10), 18 hours, supernatants
Procedure: (§3) 10^6 bone marrow derived-macrophages from Rbcn+/+ and Rbcn−/− mice were stimulated with apoptotic thymocytes (1:10) in vitro for 18 hours, in the presence of GW501516 at different concentrations (+6 μM, ++20 μM, +++60 μM). Collected supernatants were assayed for cytokine production using Luminex technology.
as §3, with “(++20” for “(+6 μM, ++20”
Supernatants were collected from macrophages fed with apoptotic thymocytes for 24 hours. Cytokines released into supernatant were analyzed by Luminex technologies (Millipore). Serum was collected from animals was analyzed by Luminex technologies (Millipore).

[3] = system: Bone marrow-derived macrophages (BMM) from Rubicon−/− mice; test: IL-10 production by Rubicon−/− bone marrow-derived macrophages co-cultured with apoptotic thymocytes (ELISA); conditions: 60 μM; Rubicon-deficient (LAP-deficient) BMM, apoptotic thymocytes 10:1, 18 hours co-culture, supernatant ELISA; versus control treatment (FIG. 1C)
Procedure: as §1, with “Rubicon−/− mice” for “LysM-Cre− ATG7f/f”, “wild-type littermates.” for “LysM-Cre+ ATG7f/f mice.”, “PPARγ agonists Rosiglitazone (ROS, 20 or 60 μM) or Tesaglitazar (TES, 6 or” for “PPARβ/δ agonist GW0742 (GW,”, “1A).” for “1B).”
Bone marrow-derived macrophages (BMM) were generated as previously described from Rubicon−/− mice and wild-type littermates. […] NT indicates no treatment. After 18 hours of co-culture, supernatants were collected and analyzed for IL-10 production via ELISA FIG. 1C). […] Thus, LXR agonists can be effective at restoring the LAP phenotype in LAP-deficient cells.
as §2, with “Nonadherent cells were removed on day 6, and adherent macrophages were detached from plates and re-plated for experimental use.” left out

SMILES: Cc1cc(SCc2sc(-c3ccc(C(F)(F)F)c(F)c3)nc2C)ccc1OCC(=O)O [GW0742]
- IL-10 production [1]: increased IL-10 production

SMILES: Cc1cc(SCc2sc(-c3ccc(C(F)(F)F)cc3)nc2C)ccc1OCC(=O)O [GW501516]
- production of inflammatory cytokines in response to AT in vitro ([2]; 6, 20, 60 μM, Luminex (FIG. 7)): reduces production of inflammatory cytokines
- IL-10 production in response to apoptotic cells in LAP-deficient macrophages ([2]; 20, 60 μM, Luminex (FIG. 8)): restores IL-10 production

SMILES: CC(C)CC[C@@H](O)[C@@H](C)[C@H]1CC[C@H]2[C@@H]3CC=C4C[C@@H](O)CC[C@]4(C)[C@H]3CC[C@]12C [22(R)-hydroxycholesterol]
- IL-10 production [3]: increased IL-10 production
